Data set [1] is described as follows: Effect on acute food intake in mice. It counts as in vivo. The conditions noted are these: single subcutaneous dose. The method, then: Male NMRI mice were obtained from JanVier (JanVier Labs, France) at 5 weeks of age. The animals were group-housed 4 mice pr. cage under a 12/12 h dark-light cycle, light off at 1 PM. Room temperature was controlled to 22°C ± 1°C, with 60 % ± 20% humidity. Animals had ad libitum access to regular rodent chow (Altromin 1324, Brogaarden, Denmark) and tap water.
Animals were transferred 5-7 days before the start of the study to a real-time food intake monitoring system, HM-2 system (MBRose, Denmark) to allow acclimatization to experimental conditions. As the animals were uniquely identified with microchips, each individual animal was identified by its microchip upon entry and exit from the food channel. Randomization of the mice for each study group (n=7-8) was based on body weight measured the day before the start of the study. A vehicle-treated group was included in each experiment. Six hours before the start of the dark phase, animals were fasted. One hour before the dark phase, animals were dosed once subcutaneously with test peptide. Food intake was reported hourly for a period of 72 hours. The percentage of food intake reduction was normalized to average food intake from the vehicle group. Statistical significance was evaluated using One-way analysis of variance with Dunnett's multiple comparison test. P < 0.05 was considered statistically significant.
Selected compounds were tested according to the general procedure on acute food intake in mice to determine the effect of a single subcutaneous dose on food intake in mice over 3 days.

A further data set deals with T1, hCRHR2 (Homo sapiens, UniProt Q13324).
T1 sequence (Q13324 1-411): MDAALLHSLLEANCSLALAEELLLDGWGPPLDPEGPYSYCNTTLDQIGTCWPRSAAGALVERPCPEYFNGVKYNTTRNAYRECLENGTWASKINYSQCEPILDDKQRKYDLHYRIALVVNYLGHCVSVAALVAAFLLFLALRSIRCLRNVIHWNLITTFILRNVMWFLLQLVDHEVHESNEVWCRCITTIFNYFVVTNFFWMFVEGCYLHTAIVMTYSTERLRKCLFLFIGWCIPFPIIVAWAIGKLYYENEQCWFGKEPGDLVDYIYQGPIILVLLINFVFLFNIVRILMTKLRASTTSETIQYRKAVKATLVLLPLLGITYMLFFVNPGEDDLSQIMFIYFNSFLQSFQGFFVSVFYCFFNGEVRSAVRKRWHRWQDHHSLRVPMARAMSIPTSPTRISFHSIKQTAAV
In words: HTRF cAMP assay, determination of hCRHR2 potency (peptide libraries 5 conc., purified peptides 11 conc.). It counts as cell-based. The conditions noted are these: for pEC50: read-out: hCRHR2 EC50. In outline: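 Cells: CHO-K1/hCRHR2 stable clone, suspension, freshly thawed. Readout: competitive TR-FRET, anti-cAMP cryptate vs cAMP-d2. Analysis: sigmoid variable-slope nonlinear regression → EC50.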

Data set [2] can be described thus: Thioflavin T fibril formation assay of purified peptides. On the set-up: key: Amyloid fibril formation detected by an increase in ThT fluorescence was denoted with "Yes"; samples without increasing ThT fluorescence hence not forming amyloid fibrils were denoted "No". In kind it is physicochemical. The method in brief:
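Fibril formation read as rising ThT emission at 480 nm (450 nm excitation), 4 µM ThT, over 96 h at 40°C with alternating 5-min rest and 700 rpm shaking cycles, in triplicate. Samples were 200 µM compound in 50 mM phosphate at various pH values, or co-formulated at 200 µM in semaglutide product at pH 7.4.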

For data set [3] the following is noted: pH 7.5.
Another data set can be described thus: PK in rats. The conditions noted are these: Rat. In kind it is in vivo. On the set-up: T½ / MRT: unit not given here. The method, then:
Lean male Sprague Dawley rats (RJHan:SD) were obtained from JanVier (JanVier Labs, France) at 7 weeks of age. The animals were pair housed until randomization under a 12/12 h dark-light cycle, light off at 3 PM. Room temperature was controlled to 22°C ± 1°C, with 60 % ± 20% humidity.
Animals had ad libitum access to regular rodent chow (Altromin 1324, Brogaarden, Denmark) and tap water.
After 2 weeks of acclimatization, the animals were single housed and randomized into treatment groups (n = 3 per group) based on body weight on study day -3. On study day 1, animals were dosed 50 nmol/kg IV and SC in combination of two peptides. Plasma samples were collected for PK analysis at times 0.17, 1, 3, 6, 24, 30, 48, 72 and 96 hours post dosing. Plasma samples were analyzed using LC-MSMS and PK parameters were estimated by Non-Compartmental Analysis (NCA).

[4] abbreviates: purified peptides, CHO-K1 cells stably expressing hCRHR2, cAMP HTRF.

Structures are written as SMILES. pEC50: −log10 of the molar value. Where two headings read alike, the source gives them in different places. Marks after values point to notes of the source that are not given here. Starred links: 1 amine or outer side, 2 acyl side, 3 side chain; linkers in the order of their positions; H or OH if unused. Non-standard residues stand in square brackets, D forms with d. Residues, ends and D or L forms follow the SMILES beside them. Groups on a side chain read outwards from the residue. *: point of attachment. C20 diacid = O=C(O)CCCCCCCCCCCCCCCCCCC(=O)*; γGlu = O=C(O)[C@H](CCC(=O)[*:2])N[*:1]; NMeI = CC[C@H](C)[C@H](NC)C(=O)O; Nle = CCCC[C@H](N)C(=O)O; AEEA = NCCOCCOCC(=O)O; Aib = CC(C)(N)C(=O)O Bounds are passed on as bounds.

Take `CC[C@H](C)[C@H](N)C(=O)N[C@H](C(=O)N[C@@H](CC(C)C)C(=O)N[C@@H](CO)C(=O)N[C@@H](CC(C)C)C(=O)N[C@@H](CC(=O)O)C(=O)N[C@H](C(=O)N1CCC[C@H]1C(=O)N[C@H](C(=O)NCC(=O)N[C@@H](CC(C)C)C(=O)N[C@@H](CC(C)C)C(=O)N[C@@H](CCC(N)=O)C(=O)N[C@H](C(=O)N[C@@H](CC(C)C)C(=O)N[C@@H](CC(C)C)C(=O)N[C@@H](CCC(=O)O)C(=O)N[C@@H](CCC(N)=O)C(=O)N[C@@H](C)C(=O)N[C@@H](CCCNC(=N)N)C(=O)N[C@@H](C)C(=O)N[C@@H](CCCNC(=N)N)C(=O)N[C@@H](C)C(=O)N[C@@H](C)C(=O)N[C@@H](CCCNC(=N)N)C(=O)N[C@@H](CCC(=O)O)C(=O)N[C@@H](CCC(N)=O)C(=O)N[C@@H](C)C(=O)N[C@@H](CCCCNC(=O)COCCOCCNC(=O)COCCOCCNC(=O)CC[C@H](NC(=O)CC[C@H](NC(=O)CCCCCCCCCCCCCCCCCCC(=O)O)C(=O)O)C(=O)O)C(=O)NC(C)(C)C(=O)N[C@@H](CC(N)=O)C(=O)N[C@@H](C)C(=O)N[C@@H](CCC(=O)O)C(=O)N[C@H](C(=O)N[C@@H](CC(C)C)C(=O)N[C@@H](C)C(=O)N[C@@H](CCC(=O)O)C(=O)N[C@H](C(N)=O)C(C)C)[C@@H](C)CC)[C@@H](C)CC)[C@@H](C)CC)C(C)C)C(C)C` [SEQ ID NO: 19] (H-IVLSLDVPIGLLQILLEQARARAAREQAK([AEEA-AEEA-γGlu-γGlu-C20 diacid])[Aib]NAEILAEV-NH2): the figures for the “% FI compared to vehicle, 24 h post-dosing” value (“% FI compared to vehicle” for short) in data set [1] (30 nmol/kg), in data set [1] (100 nmol/kg) and in data set [1] (300 nmol/kg) were 56.47*** %, 29.68*** % and 21.66*** %, respectively. The “Selectivity ratio (hCRHR1/ hCRHR2)” value at hCRHR2 (hCRHR1-EC50/hCRHR2-EC50) is over 3125. Further, the pEC50 on hCRHR2 (setting [4]) is 8.80. In addition, the “Fibrillation (pH 7.5)” value in data set [2] (pH 7.5, ThT assay) is given as “No”. Also, the “Solubility pH 7.5, target conc. =10 mg/mL (measured mg/mL)” value in data set [3] was 9.6 mg/mL. The MRT in the data set “PK in rats” was 7.4. Moreover, in the data set “PK in rats”, the T½ came to 5.9.
Take `CC[C@H](C)[C@H](N)C(=O)N[C@H](C(=O)N[C@@H](CC(C)C)C(=O)N[C@@H](CO)C(=O)N[C@@H](CC(C)C)C(=O)N[C@@H](CC(=O)O)C(=O)N[C@H](C(=O)N1CCC[C@H]1C(=O)N[C@H](C(=O)NCC(=O)N[C@@H](CC(C)C)C(=O)N[C@@H](CC(C)C)C(=O)N[C@@H](CCC(N)=O)C(=O)N[C@H](C(=O)N[C@@H](CC(C)C)C(=O)N[C@@H](CC(C)C)C(=O)N[C@@H](CCC(=O)O)C(=O)N[C@@H](CCC(N)=O)C(=O)N[C@@H](C)C(=O)N[C@@H](CCCNC(=N)N)C(=O)N[C@@H](C)C(=O)N[C@@H](CCCNC(=N)N)C(=O)N[C@@H](C)C(=O)N[C@@H](C)C(=O)N[C@@H](CCCNC(=N)N)C(=O)N[C@@H](CCC(=O)O)C(=O)N[C@@H](CCC(N)=O)C(=O)N[C@@H](C)C(=O)N[C@H](C(=O)N[C@@H](CCCCNC(=O)COCCOCCNC(=O)COCCOCCNC(=O)CC[C@H](NC(=O)CC[C@H](NC(=O)CCCCCCCCCCCCCCCCCCC(=O)O)C(=O)O)C(=O)O)C(=O)N[C@@H](CC(N)=O)C(=O)N[C@@H](C)C(=O)N[C@@H](CCC(=O)O)C(=O)N[C@H](C(=O)N[C@@H](CC(C)C)C(=O)N[C@@H](C)C(=O)N[C@@H](CCC(=O)O)C(=O)N[C@H](C(N)=O)C(C)C)[C@@H](C)CC)[C@@H](C)O)[C@@H](C)CC)[C@@H](C)CC)C(C)C)C(C)C` [SEQ ID NO: 4] (H-IVLSLDVPIGLLQILLEQARARAAREQATK([AEEA-AEEA-γGlu-γGlu-C20 diacid])NAEILAEV-NH2): the figures for the “% FI compared to vehicle” value in data set [1] (30 nmol/kg), in data set [1] (100 nmol/kg) and in data set [1] (300 nmol/kg) were 63.41*** %, 19.33*** % and 18.14*** %, respectively. The “Selectivity ratio (hCRHR1/ hCRHR2)” value at hCRHR2 (hCRHR1-EC50/hCRHR2-EC50) was over 3846. Further, the pEC50 on hCRHR2 (setting [4]) was 8.89. Besides, the “Fibrillation (pH 7.5)” value in data set [2] (pH 7.5, ThT assay) is given as “No”. Also, the “Solubility pH 7.5, target conc. =10 mg/mL (measured mg/mL)” value in data set [3] was determined as 9.1 mg/mL. Also, in “PK in rats”, the MRT is 6.4. Also, in “PK in rats”, the T½ was 5.3.
Turning to `CCCC[C@H](NC(=O)[C@@H](NC(=O)[C@H](CCC(=O)O)NC(=O)[C@H](C)NC(=O)[C@H](CC(N)=O)NC(=O)C(C)(C)NC(=O)[C@H](CCCCNC(=O)COCCOCCNC(=O)COCCOCCNC(=O)CC[C@H](NC(=O)CC[C@H](NC(=O)CCCCCCCCCCCCCCCCCCC(=O)O)C(=O)O)C(=O)O)NC(=O)[C@H](C)NC(=O)[C@H](CCC(N)=O)NC(=O)[C@H](CCC(=O)O)NC(=O)[C@H](CCCNC(=N)N)NC(=O)[C@H](C)NC(=O)[C@H](C)NC(=O)[C@H](CCCNC(=N)N)NC(=O)[C@H](C)NC(=O)[C@H](CCCNC(=N)N)NC(=O)[C@H](C)NC(=O)[C@H](CCC(N)=O)NC(=O)[C@H](CO)NC(=O)[C@H](CC(C)C)NC(=O)[C@H](CC(C)C)NC(=O)[C@@H](NC(=O)[C@H](CCC(N)=O)NC(=O)[C@H](CC(C)C)NC(=O)[C@H](CC(C)C)NC(=O)CNC(=O)[C@@H](NC(=O)[C@@H]1CCCN1C(=O)[C@@H](NC(=O)[C@H](CC(=O)O)NC(=O)[C@H](CC(C)C)NC(=O)[C@H](CO)NC(=O)[C@H](CC(C)C)NC(=O)[C@@H](NC(=O)[C@@H](NC)[C@@H](C)CC)C(C)C)C(C)C)[C@@H](C)CC)[C@@H](C)CC)[C@@H](C)CC)C(=O)N[C@@H](C)C(=O)N[C@@H](CCC(=O)O)C(=O)N[C@H](C(N)=O)C(C)C` [compound 132] (H-[NMeI]VLSLDVPIGLLQILLSQARARAAREQAK([AEEA-AEEA-γGlu-γGlu-C20 diacid])[Aib]NAEI[Nle]AEV-NH2), the “% FI compared to vehicle” value in data set [1] (30 nmol/kg) is 46.64*** %; in data set [1] (100 nmol/kg), 18.5*** %; in data set [1] (300 nmol/kg) it was 20.04*** %. The EC50 on hCRHR2 (Table 4, library peptides having X^38 = Nle, read-out: hCRHR2 pEC50 (converted)) is 0.02 nM. The “Selectivity ratio (hCRHR1/ hCRHR2)” value on hCRHR2 (Table 5) is over 6494. For the same compound, at hCRHR2 (Table 5, purified peptides), the pEC50 was 9.11. Further, the “Fibrillation (pH 7.5)” value in data set [2] (pH 7.5) is “No”. The “Solubility pH 7.5, target conc. =10 mg/mL (measured mg/mL)” value in data set [3] is 11 mg/mL. For the same compound, the MRT in “PK in rats” turned out to be 6.2. Besides, the T½ in the data set “PK in rats” stood at 4.8.

Usually pEC50 stands for the negative decadic logarithm of the EC50, by convention in mol/L.

For the origin of these results see patent EP4810052A2, “HCRHR2 SELECTIVE POLYPEPTIDES” (Gubra A/S, priority 2023, dated 2026).
